Results reported in US10350391B2, “Drug delivery medical device” (Micell Technologies, Inc., priority 2009, dated 2019).
Values joined by “and” are separate entries in the source; they are usually repeats but may differ in a detail not shown here. Equal values may be shown once. Read-outs that look alike come from different tables or passages of the source.

Legend:
[1] = Sirolimus content of rabbit iliac arteries after inflation of sirolimus coated balloons; assay type: in vivo
Description: GHOST Rapid Exchange (Rx) Catheter was used in this example. Ghost 3.0×18 mm Rx catheter balloons were coated and used in animal study
A. Expansion in rabbit iliac arteries: 8 balloons (4 rabbits)
(§1) • 4 balloons—Balloons inflated in pre-dilated arteries (right iliac) for 60 seconds • 4 balloons—Balloons inflated in non-dilated arteries (left iliac) for 60 seconds B. Tracking Studies: 4 balloons (1 rabbit) • 4 balloons—Balloons inserted and not inflated in aorta for 2 min, then removed C. Sirolimus Quantification • Sirolimus content from: 8 balloons inflated in rabbit iliac arteries 4 balloons not inflated in rabbit aorta 8 rabbit iliac arteries (after balloon inflation) 8 whole blood samples (2 samples/rabbit) • Liver, kidney, spleen, heart, lung: stored (−80° C.) for later drug analysis Sirolimus Concentrations in Rabbit Iliac Arteries
• Drug coated balloons in right iliac arteries inflated/deflated—10-20 min before sacrifice • Drug coated balloons in left iliac arteries inflated/deflated—5-15 min before sacrifice Transfer Efficiency of Sirolimus to Rabbit Iliac Arteries
• Balloons inflated for 1 min in respective iliac arteries • % Sirolimus transferred to artery based on balloon batch average from UV-Vis data • Estimated time artery exposed to blood flow is time after balloon inflation

[2] = Sirolimus concentrations in whole blood samples after balloon inflation; assay type: in vivo, rabbit; settings: for Est. Total Sirolimus in Blood: based on 56 mL per kg
Description: as §1
• Baseline samples taken before balloon inflation • After 2nd balloon inflation, blood samples were taken 5-15 min later • 5-15 min samples are the cumulative Sirolimus concentration from the inflation of 2 drug coated balloons per animal Total Sirolimus in blood based on 56 mL per kg Sirolimus Concentrations on Drug Coated Balloons (Rabbits)

[3] = Combined Right + Left Iliac Arteries, n = 8

CO[C@H]1C[C@@H]2CC[C@@H](C)[C@@](O)(O2)C(=O)C(=O)N2CCCC[C@H]2C(=O)O[C@H]([C@H](C)C[C@@H]2CC[C@@H](O)[C@H](OC)C2)CC(=O)[C@H](C)/C=C(\C)[C@@H](O)[C@@H](OC)C(=O)[C@H](C)C[C@H](C)/C=C/C=C/C=C/1C [Sirolimus, rapamycin]
Average Sirolimus [1, 3]: 197.2 ± 85.3 ng/mg and 197.2 ng/mg
Total Sirolimus per Artery Average [1, 3]: 4.7 µg
Total Sirolimus per Artery Average ([1]; Left Iliac (uninjured), n = 4): 3.9 µg
Average Sirolimus ([1]; Left Iliac (uninjured), n = 4, coated balloon inflated 60 s, 5-15 min before sacrifice): 216.1 ng/mg
Total Sirolimus per Artery Average ([1]; Right Iliac (denuded), n = 4): 5.4 µg
Average Sirolimus ([1]; Right Iliac (denuded), n = 4, coated balloon inflated 60 s, 10-20 min before sacrifice): 178.3 ng/mg
Total Sirolimus per Artery ([1]; average of the 8 balloons/arteries): 4.7 µg
% Sirolimus Transferred to Artery ([1]; average of the 8 balloons/arteries, based on balloon batch average from UV-Vis data): 7.8±2.8% and 7.8%
Est. Total Sirolimus in Blood ([2]; average of 4 rabbits (5-15 min)): 5.4 ± 2.3 µg and 5.4 µg
Est. Total Sirolimus in Blood ([2]; rabbit #1, 15 min): 2.7 µg
Est. Total Sirolimus in Blood ([2]; rabbit #2, 5 min): 8.2 µg
Est. Total Sirolimus in Blood ([2]; rabbit #3, 5 min): 5.9 µg
Est. Total Sirolimus in Blood ([2]; rabbit #4, 10 min): 4.8 µg
concentration at 15 min ([2]; rabbit, whole blood, rabbit #1, 15 min after 2nd balloon inflation, cumulative of 2 coated balloons, read-out: Extraction Conc.): 11.4 ng/mL
concentration at 5 min ([2]; rabbit, whole blood, rabbit #2, 5 min after 2nd balloon inflation, cumulative of 2 coated balloons, read-out: Extraction Conc.): 30.8 ng/mL
concentration at 5 min ([2]; rabbit, whole blood, rabbit #3, 5 min after 2nd balloon inflation, cumulative of 2 coated balloons, read-out: Extraction Conc.): 22.2 ng/mL
concentration at 10 min ([2]; rabbit, whole blood, rabbit #4, 10 min after 2nd balloon inflation, cumulative of 2 coated balloons, read-out: Extraction Conc.): 19.3 ng/mL
Extraction Conc. ([2]; whole blood, average of 4 rabbits (5-15 min)): 20.9 ng/mL
